In patent US7407941B2, “N-desmethyl-N-substituted-11-deoxyerythromycin compounds” (Pfizer, Inc., priority 2003, dated 2008):
Values after ≈ are worked out from the molar mass of the structure shown.

What was measured:
Type in all cases: cell-based
motilin receptor = biological target: T1, motilin receptor (Homo sapiens, UniProt O43193); experiment: Motilin agonist activity (activation of the motilin receptor)
T1 construct: expressed in transfected cells
Method: Compounds of this invention were tested for motilin agonist activity, following the procedure of Carreras et al., Anal. Biochem., 300, 146-151 (2002), the disclosure of which is incorporated herein by reference.

[1] = system: Streptococcus pneumoniae ATCC 49619; experiment: In vitro antibacterial activity (MIC); conditions: ATCC49619, erythromycin sensitive strain ATCC 49619
Method: (§1) Compounds of this invention were tested for in vitro activity against three erythromycin sensitive strains of Streptococcus pneumoniae (ATCC 6301, ATCC 700671, and ATCC 49619), using methods known in the microbiological art.

[2] = system: Streptococcus pneumoniae ATCC 6301; experiment: In vitro antibacterial activity (MIC); conditions: ATCC6301, erythromycin sensitive strain ATCC 6301
Method: as §1

[3] = system: Streptococcus pneumoniae ATCC 70071; experiment: In vitro antibacterial activity (MIC); conditions: ATCC70071, erythromycin sensitive strain ATCC 70071
Method: as §1

T1 sequence (O43193 whole entry): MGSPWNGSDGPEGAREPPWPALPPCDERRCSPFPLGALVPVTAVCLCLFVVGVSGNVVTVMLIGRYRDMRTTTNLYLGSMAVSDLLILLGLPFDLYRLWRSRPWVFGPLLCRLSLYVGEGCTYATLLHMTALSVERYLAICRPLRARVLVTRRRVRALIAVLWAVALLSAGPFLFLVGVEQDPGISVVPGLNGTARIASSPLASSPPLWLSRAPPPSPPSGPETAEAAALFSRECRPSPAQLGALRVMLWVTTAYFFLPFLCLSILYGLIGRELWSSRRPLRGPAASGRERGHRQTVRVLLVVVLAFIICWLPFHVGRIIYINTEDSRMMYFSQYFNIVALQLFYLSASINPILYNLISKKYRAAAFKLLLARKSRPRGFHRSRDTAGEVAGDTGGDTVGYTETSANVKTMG

Row | Structure (SMILES) | EC50 (motilin receptor) [nM] | MIC [1] [µg/mL] | MIC [2] [µg/mL] | MIC [3] [µg/mL]
1 | CC[C@H]1OC(=O)[C@H](C)[C@@H](O[C@H]2C[C@@](C)(OC)[C@@H](O)[C@H](C)O2)[C@H](C)[C@@H](O[C@@H]2O[C@H](C)C[C@H](N(C)C)[C@H]2O)C(C)(O)C[C@@H](C)C(=O)[C@H](C)C[C@H]1C (stereo partly drawn) [11-Deoxyerythromycin B, reference compound] | 1200 | 0.098 (≈ 0.14 µM) | 0.049 (≈ 0.0698 µM) | 0.78 (≈ 1.11 µM)
2 | CC[C@H]1OC(=O)[C@H](C)[C@@H](O[C@H]2C[C@@](C)(OC)[C@@H](O)[C@H](C)O2)[C@H](C)[C@@H](O[C@@H]2O[C@H](C)C[C@H](N(C)CC(C)C)[C@H]2O)C(C)(O)C[C@@H](C)C(=O)[C@H](C)C[C@H]1C (stereo partly drawn) [IVb, N-desmethyl-N-isobutyl-11-deoxyerythromycin B] | 2100 | 200 (≈ 269 µM) | 200 (≈ 269 µM) | > 200
3 | CC[C@H]1OC(=O)[C@H](C)[C@@H](O[C@H]2C[C@@](C)(OC)[C@@H](O)[C@H](C)O2)[C@H](C)[C@@H](O[C@@H]2O[C@H](C)C[C@H](N(C)C(C)C)[C@H]2O)C(C)(O)C[C@@H](C)C(=O)[C@H](C)C[C@H]1C (stereo partly drawn) [IVa, N-desmethyl-N-isopropyl-11-deoxyerythromycin B] | 700 | 6.25 (≈ 8.56 µM) | 12.5 (≈ 17.1 µM) | 200 (≈ 274 µM)
4 | CC[C@H]1OC(=O)[C@H](C)[C@@H](O[C@H]2C[C@@](C)(OC)[C@@H](O)[C@H](C)O2)[C@H](C)[C@@H](O[C@@H]2O[C@H](C)C[C@H](N(C)C)[C@H]2O)[C@](C)(O)C[C@@H](C)C(=O)[C@H](C)[C@@H](O)[C@]1(C)O [Erythromycin A, reference compound] |  | 0.049 (≈ 0.0668 µM) | 0.025 (≈ 0.0341 µM) | 0.049 (≈ 0.0668 µM)
